Data published in ChEMBL document CHEMBL6083265, “Design, synthesis and biological evaluation of 4,6-diarylquinoxaline-based KDM4D inhibitors” (Bioorg Med Chem, 2024).
Active and inactive are the calls of the source. The rule behind the calls is not given here.

Tests used:
[1] = target: T1, Lysine-specific demethylase 4D (Homo sapiens, UniProt Q6B0I6); experiment: Inhibition of KDM4D (unknown origin) incubated for 60 mins by microplate reader analysis
T1 sequence (Q6B0I6 whole entry): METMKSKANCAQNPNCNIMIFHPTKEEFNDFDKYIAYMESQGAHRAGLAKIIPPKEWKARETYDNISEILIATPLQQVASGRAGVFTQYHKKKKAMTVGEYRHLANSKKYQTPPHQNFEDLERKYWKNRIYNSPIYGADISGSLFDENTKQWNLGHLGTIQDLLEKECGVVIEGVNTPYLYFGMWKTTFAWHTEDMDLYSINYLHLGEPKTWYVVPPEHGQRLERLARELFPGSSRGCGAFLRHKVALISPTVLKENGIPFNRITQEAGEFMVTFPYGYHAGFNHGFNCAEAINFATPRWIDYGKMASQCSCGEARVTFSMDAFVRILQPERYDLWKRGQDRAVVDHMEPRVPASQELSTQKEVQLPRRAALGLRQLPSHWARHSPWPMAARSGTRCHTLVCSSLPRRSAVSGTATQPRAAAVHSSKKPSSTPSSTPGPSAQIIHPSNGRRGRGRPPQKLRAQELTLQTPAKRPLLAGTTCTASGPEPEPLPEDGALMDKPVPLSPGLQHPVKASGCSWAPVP

[2] = system: Huh-7; experiment: cells; settings: Homo sapiens, Huh-7, 48 h, read-out: INH
Description: Anticancer activity against human Huh-7 cells assessed as inhibition of cell viability at 8 uM incubated for 48 hrs by CCK-8 assay (Rvb = 0 +/- 0.88 %)

[3] = system: Huh-7; settings: Homo sapiens, Huh-7, 48 h
[4] = system: Huh-7; experiment: Downregulation of c-Myc expression in human Huh-7 cells by Western blot analysis; type: functional, cell-based
[5] = system: Huh-7; experiment: Downregulation of CyclinD1 expression in human Huh-7 cells by Western blot analysis; type: functional, cell-based
[6] = system: Huh-7; experiment: Inhibition of colony formation in human Huh-7 cells at 2 uM incubated for 72 hrs followed by compound washout and measured after 10 days by crystal violet staining based assay; type: functional, cell-based
[7] = system: Huh-7; experiment: Induction of cell cycle arrest in human Huh-7 cells assessed as increase in accumulation of cells at G1 phase at 2 uM by flow cytometry analysis; type: functional, cell-based
[8] = system: Huh-7; experiment: Induction of cell cycle arrest in human Huh-7 cells assessed as decrease in accumulation of cells at S phase at 2 uM by flow cytometry analysis; type: functional, cell-based
[9] = system: Huh-7; experiment: Induction of cell cycle arrest in human Huh-7 cells assessed as decrease in accumulation of cells at G2/M phase at 2 uM by flow cytometry analysis; type: functional, cell-based
[10] = system: Huh-7; experiment: Inhibition of cell migration in human Huh-7 cells at 2 uM measured for 24 hrs by wound healing assay; type: functional, cell-based

| SMILES | IC50 [1] [µM] | inhibition at 8 µM [2] [%] | also measured |
| --- | --- | --- | --- |
| Fc1ccc(CNC(=S)Nc2ccc3nc(-c4ccco4)c(-c4ccco4)nc3c2)cc1 | 3.23 | 33 | – |
| S=C(NCc1ccccn1)Nc1ccc2nc(-c3ccc(Br)o3)c(-c3ccc(Br)o3)nc2c1 | 13 | 38.1 | – |
| COc1ccc(CNC(=S)Nc2ccc3nc(-c4ccco4)c(-c4ccco4)nc3c2)cc1 | 3.12 | 32.9 | – |
| O=C1CCCN(C(=S)Nc2ccc3nc(-c4ccco4)c(-c4ccco4)nc3c2)CC1 | 3.97 | 29.5 | – |
| O=C(Nc1ccccc1)C(=S)Nc1ccc2nc(-c3ccco3)c(-c3ccco3)nc2c1 | 7.16 | 19.7 | – |
| S=C(Nc1ccccc1)Nc1ccc2nc(-c3ccco3)c(-c3ccco3)nc2c1 | 4.81 | 25.6 | – |
| CCCCNC(=S)Nc1ccc2nc(-c3ccco3)c(-c3ccco3)nc2c1 | 2.63 | 30.7 | – |
| Cc1ccc(-c2nc3ccc(NC(=S)N4CCCCCC4)cc3nc2-c2ccc(C)o2)o1 | 0.62 | 55.5 | IC50 [3]: 5.23 µM; Activity [4]: Active; Activity [5]: Active; inhibition [6]: Active; Activity [7]: Active; Activity [8]: Active; Activity [9]: Active; inhibition [10]: Active |
| S=C(Nc1ccc2nc(-c3ccco3)c(-c3ccco3)nc2c1)N1CCOCC1 | 3.8 | 30 | – |
| S=C(Nc1ccc2nc(-c3ccco3)c(-c3ccco3)nc2c1)Nc1ccccn1 | 2.46 | 16 | – |
| S=C(Nc1ccc2nc(-c3ccccn3)c(-c3ccccn3)nc2c1)N1CCCCCC1 | > 50 | 39.1 | – |
| O=C(Nc1ccc2nc(-c3ccco3)c(-c3ccco3)nc2c1)N1CCCCCC1 | 2.95 | 32.8 | – |
| O=[N+]([O-])c1ccc(CNC(=S)Nc2ccc3nc(-c4ccco4)c(-c4ccco4)nc3c2)cc1 | 3.66 | 19.4 | – |
| S=C(Nc1ccc2nc(-c3ccco3)c(-c3ccco3)nc2c1)c1ccccc1 | 25.6 | 33.8 | – |
| S=C(Nc1ccc2nc(-c3ccc(Br)s3)c(-c3ccc(Br)s3)nc2c1)N1CCCCCC1 | > 50 | 41.5 | – |
| COC(=O)CCCNC(=S)Nc1ccc2nc(-c3ccco3)c(-c3ccco3)nc2c1 | 2.41 | 20.2 | – |
| S=C(NCc1ccncc1)Nc1ccc2nc(-c3ccccn3)c(-c3ccccn3)nc2c1 | > 50 | 39.8 | – |
| Fc1ccc(CNC(=S)Nc2ccc3nc(-c4ccccn4)c(-c4ccccn4)nc3c2)cc1 | > 50 | 37.8 | – |
| Fc1ccc(CNC(=S)Nc2ccc3nc(-c4cccs4)c(-c4cccs4)nc3c2)cc1 | > 50 | 41.8 | – |
| O=C(Nc1ccccc1)Nc1ccc2nc(-c3ccco3)c(-c3ccco3)nc2c1 | 3.7 | 24.2 | – |
| S=C(NCc1ccccn1)Nc1ccc2nc(-c3ccccn3)c(-c3ccccn3)nc2c1 | > 50 | 30.3 | – |
| S=C(Nc1ccc2nc(-c3ccco3)c(-c3ccco3)nc2c1)N1CCCCCC1 | 2.31 | 33.3 | – |
| Fc1ccc(CNC(=S)Nc2ccc3nc(-c4ccc(Br)s4)c(-c4ccc(Br)s4)nc3c2)cc1 | > 50 | 28.5 | – |
| S=C(Nc1ccc2nc(-c3ccc(Br)o3)c(-c3ccc(Br)o3)nc2c1)N1CCCCCC1 | 5.98 | 25.8 | – |
